Laboratory results from ChEMBL document CHEMBL3045392, “Synthesis and fungicidal evaluation of some new anilinopyrimidine derivatives” (2013).

Experiments:
Format in all cases: functional
Aspergillus niger [1] = assay: Fungicidal activity against Aspergillus niger assessed as growth inhibition at 50 ug/ml after 7 days; conditions: 168 h, read-out: IZ
Aspergillus niger [2] = assay: Fungicidal activity against Aspergillus niger assessed as growth inhibition at 100 ug/ml after 7 days; conditions: 168 h, read-out: IZ
Aspergillus niger [3] = assay: Fungicidal activity against Aspergillus niger assessed as growth inhibition at 1000 ug/ml after 7 days; conditions: 168 h, read-out: IZ
Aspergillus niger [4] = assay: Fungicidal activity against Aspergillus niger assessed as growth inhibition at 10 ug/ml after 7 days; conditions: 168 h, read-out: IZ
Aspergillus niger [5] = assay: Fungicidal activity against Aspergillus niger assessed as time required for hyphae to burst at 5 ug/ml
Aspergillus niger [6] = assay: Fungicidal activity against Aspergillus niger assessed as time required for hyphae to burst at 2.5 ug/ml
Aspergillus niger [7] = assay: Fungicidal activity against Aspergillus niger assessed as time required for hyphae to burst at 10 ug/ml
Aspergillus niger [8] = assay: Fungicidal activity against Aspergillus niger assessed as time required for hyphae to burst at 7.5 ug/ml

Structure (SMILES)	zone of inhibition at 50 µg/mL (Aspergillus niger [1])	zone of inhibition at 100 µg/mL (Aspergillus niger [2])	zone of inhibition at 1000 µg/mL (Aspergillus niger [3])	zone of inhibition at 10 µg/mL (Aspergillus niger [4])	Time (Aspergillus niger [5])	Time (Aspergillus niger [6])	Time (Aspergillus niger [7])	Time (Aspergillus niger [8])
Cc1nc(Nc2ccccc2)nc2c1C(=N)C(C#N)CN(C(=O)c1ccccc1)C2 (configuration not stated)	1.02 mm	1.33 mm	2.1 mm	1 mm				
Cc1cc(CBr)nc(Nc2ccccc2)n1	1.9 mm	2 mm	2.2 mm	1.5 mm				
Cc1cc(C)nc(Nc2ccccc2)n1 [PYRIMETHANIL]	2.9 mm	3.2 mm	4 mm	2.6 mm	21 s	12 s	56 s	39 s
CC(=O)N(c1ccccc1)c1nc(C)cc(C)n1 [N-ACETYL PYRIMETHANIL]	2.4 mm	2.7 mm	3.4 mm	2.1 mm	18 s	9 s	51 s	32 s
Cc1nc(Nc2ccccc2)nc(C)c1C#N	1.7 mm	1.9 mm	2.5 mm	1.4 mm				
Cc1nc(Nc2ccccc2)nc(C)c1Br	2.1 mm	2.5 mm	2.9 mm	1.6 mm				
